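Exposure lasted 48 hours, with cells grown in 96-well plates and compounds tested at five concentrations. Abbreviation: GI50, concentration required for 50% inhibition of growth.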 Activity calls are given as the source filed them. No stated cut-off is given here; in the data, active = GI50 up to about 1.1 µM and inactive = higher.
How the values were obtained:
Experiment in all cases: NCI anticancer screen, dose series, 48 h
MOLT-4 = test system: MOLT-4
Malme-3M = test system: Malme-3M
HT-29 = test system: HT-29
T47D = test system: T47D
Hs-578T = test system: Hs-578T
OVCAR-8 = test system: OVCAR-8
SF-268 = test system: SF-268
A498 = test system: A498
HCT-15 = test system: HCT-15
TK-10 = test system: TK-10
SNB-19 = test system: SNB-19
M14 = test system: M14
LOX IMVI = test system: LOX IMVI
SF-539 = test system: SF-539
SN12C = test system: SN12C
EKVX = test system: EKVX
RXF 393 = test system: RXF 393
MCF7 = test system: MCF7
ACHN = test system: ACHN
NCI-H23 = test system: NCI-H23
CAKI-1 = test system: CAKI-1
UACC-257 = test system: UACC-257
COLO 205 = test system: COLO 205
A549 = test system: A549
HL-60 = test system: HL-60
OVCAR-5 = test system: OVCAR-5
SNB-75 = test system: SNB-75
SK-MEL-5 = test system: SK-MEL-5
U-251 = test system: U-251
SF-295 = test system: SF-295
KM12 = test system: KM12
SW-620 = test system: SW-620
BT-549 = test system: BT-549
HOP-62 = test system: HOP-62
DU-145 = test system: DU-145
MDA-MB-231 = test system: MDA-MB-231
SK-OV-3 = test system: SK-OV-3
SK-MEL-2 = test system: SK-MEL-2
HCT-116 = test system: HCT-116
NCI/ADR-RES = test system: NCI/ADR-RES
PC-3 = test system: PC-3
CCRF-CEM = test system: CCRF-CEM
NCI-H522 = test system: NCI-H522
MDA-MB-435 = test system: MDA-MB-435
IGROV-1 = test system: IGROV-1
OVCAR-4 = test system: OVCAR-4
UACC-62 = test system: UACC-62
NCI-H226 = test system: NCI-H226
MDA-N = test system: MDA-N
UO-31 = test system: UO-31
SK-MEL-28 = test system: SK-MEL-28
786-0 = test system: 786-0
RPMI-8226 = test system: RPMI-8226
OVCAR-3 = test system: OVCAR-3
HOP-92 = test system: HOP-92
K562 = test system: K562
HCC 2998 = test system: HCC 2998
NCI-H460 = test system: NCI-H460

## CNc1ccc(N)cc1C(=O)N1CCC[C@H]1CO
MOLT-4
  GI50: > 100 µM (inactive)
Malme-3M
  GI50: > 100 µM (inactive)
HT-29
  GI50: > 100 µM (inactive)
T47D
  GI50: > 100 µM (inactive)
Hs-578T
  GI50: > 100 µM (inactive)
OVCAR-8
  GI50: > 100 µM (inactive)
SF-268
  GI50: > 100 µM (inactive)
A498
  GI50: > 100 µM (inactive)
HCT-15
  GI50: > 100 µM
TK-10
  GI50: > 100 µM (inactive)
SNB-19
  GI50: > 100 µM (inactive)
M14
  GI50: > 100 µM (inactive)
LOX IMVI
  GI50: > 100 µM (inactive)
SF-539
  GI50: > 100 µM (inactive)
SN12C
  GI50: > 100 µM (inactive)
EKVX
  GI50: > 100 µM (inactive)
RXF 393
  GI50: > 100 µM (inactive)
MCF7
  GI50: > 100 µM (inactive)
ACHN
  GI50: > 100 µM (inactive)
NCI-H23
  GI50: > 100 µM (inactive)
CAKI-1
  GI50: > 100 µM (inactive)
UACC-257
  GI50: > 100 µM (inactive)
COLO 205
  GI50: > 100 µM (inactive)
A549
  GI50: > 100 µM (inactive)
HL-60
  GI50: > 100 µM (inactive)
OVCAR-5
  GI50: > 100 µM (inactive)
SNB-75
  GI50: > 100 µM (inactive)
SK-MEL-5
  GI50: > 100 µM (inactive)
U-251
  GI50: > 100 µM (inactive)
SF-295
  GI50: > 100 µM (inactive)
KM12
  GI50: > 100 µM (inactive)
SW-620
  GI50: > 100 µM (inactive)
BT-549
  GI50: > 100 µM (inactive)
HOP-62
  GI50: > 100 µM (inactive)
DU-145
  GI50: > 100 µM (inactive)
MDA-MB-231
  GI50: > 100 µM (inactive)
SK-OV-3
  GI50: > 100 µM (inactive)
SK-MEL-2
  GI50: > 100 µM (inactive)
HCT-116
  GI50: > 100 µM (inactive)
NCI/ADR-RES
  GI50: > 100 µM (inactive)
PC-3
  GI50: > 100 µM (inactive)
CCRF-CEM
  GI50: > 100 µM (inactive)
NCI-H522
  GI50: > 100 µM (inactive)
MDA-MB-435
  GI50: > 100 µM (inactive)
IGROV-1
  GI50: > 100 µM (inactive)
OVCAR-4
  GI50: > 100 µM (inactive)
UACC-62
  GI50: > 100 µM (inactive)
NCI-H226
  GI50: > 100 µM (inactive)
MDA-N
  GI50: > 100 µM (inactive)
UO-31
  GI50: > 100 µM (inactive)
SK-MEL-28
  GI50: > 100 µM (inactive)
786-0
  GI50: > 100 µM (inactive)

## Cc1ccc2c(c1)-c1nc(N)c(C#N)c(-c3ccccc3)c1CCS2(=O)=O
Malme-3M
  GI50: 23.8 µM (inactive)
HT-29
  GI50: > 100 µM (inactive)
T47D
  GI50: > 100 µM (inactive)
Hs-578T
  GI50: 20.8 µM (inactive)
OVCAR-8
  GI50: 23.1 µM (inactive)
SF-268
  GI50: 46.5 µM (inactive)
RPMI-8226
  GI50: > 100 µM (inactive)
A498
  GI50: 28.8 µM (inactive)
HCT-15
  GI50: 44.1 µM
TK-10
  GI50: 23.7 µM (inactive)
SNB-19
  GI50: 23.6 µM (inactive)
M14
  GI50: > 100 µM (inactive)
LOX IMVI
  GI50: > 100 µM (inactive)
SN12C
  GI50: 41.4 µM (inactive)
ACHN
  GI50: 38.5 µM (inactive)
NCI-H23
  GI50: 87.9 µM (inactive)
OVCAR-3
  GI50: 29.5 µM (inactive)
CAKI-1
  GI50: 49.3 µM (inactive)
UACC-257
  GI50: 44.9 µM (inactive)
COLO 205
  GI50: > 100 µM (inactive)
A549
  GI50: 55 µM (inactive)
OVCAR-5
  GI50: 55 µM (inactive)
SNB-75
  GI50: 24.4 µM (inactive)
SK-MEL-5
  GI50: > 100 µM (inactive)
U-251
  GI50: 32.5 µM (inactive)
KM12
  GI50: > 100 µM (inactive)
SW-620
  GI50: > 100 µM (inactive)
BT-549
  GI50: 36.4 µM (inactive)
HOP-62
  GI50: 30.5 µM (inactive)
HOP-92
  GI50: 26.4 µM (inactive)
DU-145
  GI50: 65.2 µM (inactive)
MDA-MB-231
  GI50: 37 µM (inactive)
K562
  GI50: > 100 µM (inactive)
SK-MEL-2
  GI50: 45.8 µM (inactive)
HCC 2998
  GI50: > 100 µM (inactive)
HCT-116
  GI50: > 100 µM (inactive)
NCI/ADR-RES
  GI50: 38.5 µM (inactive)
PC-3
  GI50: 49.2 µM (inactive)
NCI-H522
  GI50: 39.2 µM (inactive)
MDA-MB-435
  GI50: > 100 µM (inactive)
IGROV-1
  GI50: 31.3 µM (inactive)
NCI-H460
  GI50: 75.2 µM (inactive)
OVCAR-4
  GI50: 16.7 µM (inactive)
UACC-62
  GI50: 49.7 µM (inactive)
NCI-H226
  GI50: 24.3 µM (inactive)
MDA-N
  GI50: > 100 µM (inactive)
UO-31
  GI50: > 100 µM (inactive)
SK-MEL-28
  GI50: > 100 µM (inactive)
786-0
  GI50: 19 µM (inactive)
